Data taken from publication PMC9785921, “Evaluation of Chiral Organosulfur Compounds on Their Activity against the Malaria Parasite Plasmodium falciparum” (Tropical Medicine and Infectious Disease, 2022).

How the values were obtained:
P. falciparum 3D7 strain = assay: Malstat assay, asexual blood stages, CQ-sensitive strain 3D7; type: cell-based; conditions: Plasmodium falciparum, 3D7; for IC50: ring stage parasites, 72 h, Malstat (plasmodial LDH), read-out: IC50 (µM) CQ-Sensitive Strain 3D7; for IC90: 90% inhibitory concentration estimated from the IC50
Procedure: (§1) Three P. falciparum strains were used for compound testing; a strain sensitive to chloroquine (CQ) 3D7, CQ-resistant strain Dd2 and P. falciparum gametocyte producing NF54 strain. The 3D7 and Dd2 strains were used to investigate the effect of the compounds on asexual blood stage replication. They were cultured in RPMI 1640/HEPES medium (Gibco, Thermo Scientific, Waltham, MA, USA) containing 10 µg/mL gentamicin (Gibco Thermo Scientific, Waltham, MA, USA,), 50 µg/mL hypoxanthine (Sigma-Aldrich, St. Louis, MO, USA), 0.5% v/v Albumax II (Gibco, Thermo Scientific, Waltham, MA, USA) and 5% hematocrit. Cultures were maintained at 37 °C using a gas mixture containing 5% CO2, 5% O2 and 90% N2. […] To obtain highly synchronized cultures, parasite cultures consisting mainly of ring stages were centrifuged, the pellet was resuspended in 10 mL of 5% w/v sorbitol/ddH20 and incubated for 10 min at room temperature. After washing the cells with RPMI to remove residual sorbitol, they were again cultivated, as described above. Erythrocyte concentrate and serum samples were obtained from the Department of Transfusion Medicine, University Hospital Aachen, Germany. The serum samples were mixed and pooled and donors were kept anonymous. The work with blood components from humans was approved by the Ethics commission of the RWTH University Hospital (EK 007/13).
(§2) The antiplasmodial effect of the compounds on P. falciparum asexual blood stage development was carried out using the Malstat assay, as described previously. Compounds dissolved in dimethyl sulfoxide (DMSO) were added to 1% ring stage P. falciparum 3D7 and Dd2 cultures (200 µL/well) in a 96-well plate in triplicate at final concentrations ranging from 100 µM to 0.78 µM. […] CQ at concentrations ranging from 500 nM to 4 nM was used as an internal control in the experiments, while parasites treated with 0.5% v/v DMSO served as the negative control. The parasites were cultured with the compounds for 72 h at 37 °C in the presence of the following gas combination: 5% O2, 5% CO2, and 90% N2. Afterwards, 20 µL of the incubated culture was removed and 100 µL of Malstat reagent (0.1% v/v Triton X-100, 1 g of L-lactate, 0.33 g Tris and 33 mg of 3-acetylpyridine adenine dinucleotide in 100 mL of distilled water, pH 9.0) was added in a new 96-well microtiter plate. Next, 20 µL mixture of NBT/Diaphorase (1:1; 1 mg/mL stock each) was added to the Malstat reaction and the parasite lactate dehydrogenase activity was then quantified by measuring the optical densities at 630 nm. IC50 values were then determined from variable-slope sigmoidal dose-response graphs using the GraphPad Prism program version 5 (GraphPad Software Inc., La Jolla, San Diego, CA, USA).

P. falciparum Dd2 strain = assay: Malstat assay, asexual blood stages, CQ-resistant strain Dd2; type: cell-based; conditions: Plasmodium falciparum, DD2; ring stage parasites, 72 h, Malstat; read-out: IC50 (µM) CQ-Resistant Strain Dd2
Procedure: as §1, §2

[1] = tested on: non-infected erythrocytes; assay: Hemolytic assay; type: cell-based, human; conditions: IC50 and IC90 concentrations, 48 h, 37 °C, compared with 0.5% v/v DMSO
Procedure: Since the malaria parasite replicates in the red blood cell, we determined if the compounds have an effect on non-infected erythrocytes using hemolytic assays. To this end, 1 mL of washed uninfected erythrocytes at 5% hematocrit in regular medium was plated in triplicate in a 96-well plate (200 µL/well) in the presence of compounds at IC50 and IC90 concentrations. Erythrocytes treated with 0.15% w/v saponin were used as lysis control and 0.5% v/v DMSO was used as the negative control. Following 48 h of incubation at 37 °C, the plate was centrifuged at 500× g for 2 min and 100 µL of the supernatant was transferred to another plate and the absorbance was measured at 550 nm with a spectrophotometer.
(§3) Figure 4 Hemolytic and cytotoxic effect of compounds. (a) Hemolytic effect of compounds. […] The absorbance of free hemoglobin was measured at OD550 nm in the supernatant and normalized to 0.15% w/v saponin (set to 100%), which served as positive control in the experiments. 0.5% v/v DMSO was used as negative control. (b) Cytotoxicity effect of compounds on Hela cells. The cells were plated in 96-well microtiter plates and cultured overnight at 37 °C. The following day, the old medium was removed and 100 µL of fresh medium containing serially diluted compounds in corresponding wells at final concentrations ranging from 100 µM to 0.8 µM was added and the culture was incubated for 72 h. After incubation, the medium was replaced by 100 µL fresh drug-free medium and 20 µL MTT (5 mg/mL) was added in each well and incubated for 3 h at 37 °C. After 3 h, the MTT preparation was then removed from each well and 100 µL solubilization solution was added. Plates were then placed on a rotator at about 500 rpm at RT until the formazan precipitate was completely resuspended and the OD was measured at 450 nm. The data are representative of three independent experiments.

[2] = tested on: P. falciparum NF54 gametocytes; assay: Gametocyte toxicity test; type: cell-based, Plasmodium falciparum; conditions: compound at IC50 concentration, 48 h treatment, then 7 d drug-free
Procedure: as §1
P. falciparum NF54 parasites were cultured at high parasitemia to induce gametocyte formation. Once stage II gametocytes appeared, 1 mL of culture was aliquoted in triplicate in a 24-well plate with compounds at the respective IC50 and IC90 concentrations that was determined from Malstat assay. The gametocytes were again cultivated for 9 d with the daily replacement of medium. For the first 48 h of cultivation, the gametocytes were treated with test compounds, and subsequently compound free medium was used. On day 9, blood smears were prepared and stained with Giemsa and the gametocytemia was determined by counting the numbers of gametocytes stages IV and V in a total number of 1000 erythrocytes.
Figure 3 Effect of organosulfur compounds on gametocyte development. Cultures rich in stage II gametocyte were incubated with compounds at IC50 and IC90 concentrations for 2 d, and again cultivated for another 7 d with daily replacement of medium. The numbers of stage IV and V gametocytes were determined from Giemsa smears and normalized to 0.5% v/v DMSO treatment which served as negative control (set to 100%). Epoxomicin (Epoxo) at 60 nM served as positive control.

[3] = MTT cytotoxicity assay, Hela cells; type: cell-based; conditions: human, Hela cells (human cervical cancer cell line); for viability at 72 h: about 25 µM
Procedure: The MTT [3-(4,5-dimethylthiazol-2-yl)-2,5-diphenyltetrazolium bromide] assay was performed using the human cervical cancer cell (Hela) line and the hematologic malignancy human erythroleukemia (HEL) cell line to determine if the compounds were toxic (loss of viability) against human cells. MTT is taken up by viable cells and converted by mitochondrial dehydrogenases to a violet formazan product that cannot diffuse through cell membranes, and therefore crystallizes in viable cells. The adherent Hela cells were plated in 96-well microtiter plates and cultured at 37 °C overnight. Compounds were added to the cultures in different serial concentrations in triplicate the next day, and the cells were incubated for 72 h. DMSO was used as the negative control at a final concentration of 0.5% v/v, and a concentration of 15% v/v DMSO which is toxic was added as the positive control. After 72 h of drug treatment, medium-containing drug was replaced with 100 µL fresh drug-free medium. Then, 20 µL MTT (5 mg/mL) was added to each well and incubated for 3 h at 37 °C. The medium was subsequently removed and 100 µL solubilization solution (5% w/v SDS, 0.1 M HCl in 100% vol. DMSO) was added and incubated for 30 min under rotation at room temperature to solubilize the formazan crystals.
For both cell lines, the optical density (OD) of the solution was measured at 550 nm. The OD-values of cultures treated with compounds were normalized to the OD-values of 0.5% v/v DMSO control (set to 100% viability for Hela or 1 for HEL cell line). IC50 values were calculated from MTT assays using Graphpad Prism (V9).
as §3

| IC50 (P. falciparum 3D7 strain) [µM] | Compound | further results |
| --- | --- | --- |
| 21.3 ± 4.05 | Cc1ccc2c(c1)C=C(c1ccccc1)N=S2(=O)N1CCCCCC1 (stereo not drawn) [Compound 12] | – |
| 3.3 ± 1.56 | CC(C)(C)c1ccc2c(c1)C=C(c1ccccc1)N=S2(=O)N1CCCCCC1 (stereo not drawn) [Compound 9] | IC50 (P. falciparum Dd2 strain): 6.5 ± 0.87 µM; hemolytic effect [1]: no hemolytic effect; reduction of mature gametocyte numbers [2]: about 50%; IC90 (P. falciparum 3D7 strain): 29.7 µM; viability at 72 h, 50 µM [3]: > 60%; viability at 72 h [3]: > 90% |
| 12 ± 4.28 | CCOC(=O)C1=C(C)N=S(=O)(N2CCCCCC2)c2ccc(C)cc21 (stereo not drawn) [Compound 11] | – |
| 2.6 ± 0.7 | CCOC(=O)C1=C(c2ccc(C)cc2)N=S(=O)(N2CCCCCC2)c2ccc(C)cc21 (stereo not drawn) [Compound 17] | IC50 (P. falciparum Dd2 strain): 4 ± 0.28 µM; hemolytic effect [1]: no hemolytic effect; reduction of mature gametocyte numbers [2]: about 50%; IC90 (P. falciparum 3D7 strain): 23.4 µM; viability at 72 h, 50 µM [3]: > 60%; viability at 72 h [3]: > 90% |
| 10.6 ± 1.53 | O=S1(N2CCCCCC2)=NC(c2ccc(Br)cc2)=Cc2ccccc21 (stereo not drawn) [Compound 6] | – |
| 8 ± 0.53 | CN1CCC[C@H](NC(=S)Nc2cc(C(F)(F)F)cc(C(F)(F)F)c2)C1 [Compound 20] | – |
| 22.1 ± 1.06 | O=S1(c2ccc(Br)cc2)=NC(c2ccccc2)=CC(c2ccc(Cl)cc2)=N1 (stereo not drawn) [Compound 3] | – |
| 15.9 ± 1.46 | CC(C)[C@@H](CN=[S@@](C)(=O)c1ccccc1)NC(=S)Nc1cc(C(F)(F)F)cc(C(F)(F)F)c1 [Compound 22] | – |
| 10.3 ± 0.9 | O=[N+]([O-])c1ccc2c(c1)C=C(c1ccccc1)N=S2(=O)N1CCCCCC1 (stereo not drawn) [Compound 14] | – |
| 9.1 ± 2.59 | CCOC(=O)C1=C(c2cccs2)N=S(=O)(N2CCCCCC2)c2c1cc1ccccc1c2Cl (stereo not drawn) [Compound 4] | – |
| 14.1 ± 1.5 | CC(C)C[C@@H](CN=[S@](C)(=O)c1ccccc1)NC(=S)Nc1cc(C(F)(F)F)cc(C(F)(F)F)c1 [Compound 21] | – |
| 12.5 ± 3.27 | Cc1cccc2c1S(=O)(N1CCCCCC1)=NC(c1ccc(Br)cc1)=C2 (stereo not drawn) [Compound 8] | – |
